This note sets out measurements from ChEMBL document CHEMBL1152755, “Synthesis and cytotoxic properties of 4,11-bis[(aminoethyl)amino]anthra[2,3-b]thiophene-5,10-diones, novel analogues of antitumor anthracene-9,10-diones” (2009).

Calls of active or inactive are those of the source. The calls are words filed in the database; no cut-off is given here.

The test system of test [1] is K562. In words: Resistance index, ratio IC50 for human K562 cells to IC50 for P-gp positive human K562 cells. Format: functional.
For test [2], the target named is Telomerase reverse transcriptase (Homo sapiens) (UniProt O14746). Description: Inhibition of telomerase at 1 uM by TRAP assay.
Telomerase reverse transcriptase (Homo sapiens), sequence (O14746 whole entry): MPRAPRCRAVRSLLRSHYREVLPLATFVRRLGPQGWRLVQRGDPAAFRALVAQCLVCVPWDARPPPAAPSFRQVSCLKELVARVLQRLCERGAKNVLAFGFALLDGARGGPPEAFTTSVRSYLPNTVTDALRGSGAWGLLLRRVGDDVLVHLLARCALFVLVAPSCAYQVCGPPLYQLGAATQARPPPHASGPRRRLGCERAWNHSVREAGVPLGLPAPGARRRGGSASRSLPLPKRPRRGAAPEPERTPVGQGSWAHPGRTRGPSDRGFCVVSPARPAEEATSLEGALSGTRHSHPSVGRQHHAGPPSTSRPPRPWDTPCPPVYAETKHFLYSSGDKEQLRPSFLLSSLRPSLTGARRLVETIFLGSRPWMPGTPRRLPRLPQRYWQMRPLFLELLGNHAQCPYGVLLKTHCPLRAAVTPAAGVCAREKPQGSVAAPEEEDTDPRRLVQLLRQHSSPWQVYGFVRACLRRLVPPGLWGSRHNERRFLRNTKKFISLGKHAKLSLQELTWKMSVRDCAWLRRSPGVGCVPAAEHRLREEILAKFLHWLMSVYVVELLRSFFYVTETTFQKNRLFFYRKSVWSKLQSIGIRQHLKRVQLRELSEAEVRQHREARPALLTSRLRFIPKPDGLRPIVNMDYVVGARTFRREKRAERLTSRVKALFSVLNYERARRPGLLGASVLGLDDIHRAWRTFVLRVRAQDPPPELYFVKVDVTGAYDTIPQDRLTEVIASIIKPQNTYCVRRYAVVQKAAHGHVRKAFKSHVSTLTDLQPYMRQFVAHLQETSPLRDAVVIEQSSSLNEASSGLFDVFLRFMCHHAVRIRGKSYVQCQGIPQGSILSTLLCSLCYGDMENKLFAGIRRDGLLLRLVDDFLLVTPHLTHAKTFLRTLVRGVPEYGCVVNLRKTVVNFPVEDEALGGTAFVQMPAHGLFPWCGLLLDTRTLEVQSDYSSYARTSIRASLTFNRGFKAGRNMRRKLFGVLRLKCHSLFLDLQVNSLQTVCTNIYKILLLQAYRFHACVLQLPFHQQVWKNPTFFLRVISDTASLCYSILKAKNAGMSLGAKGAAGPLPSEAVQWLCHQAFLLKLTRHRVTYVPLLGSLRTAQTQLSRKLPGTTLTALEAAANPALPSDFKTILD
In test [3] the test system is HCT-116. Description: Resistance index, ratio IC50 for HCT116 cells to IC50 for p53 deleted human HCT116 cells. Format: functional.
In test [4] the target is T1, DNA topoisomerase 1 (Homo sapiens) (UniProt P11387).
T1 sequence (whole entry): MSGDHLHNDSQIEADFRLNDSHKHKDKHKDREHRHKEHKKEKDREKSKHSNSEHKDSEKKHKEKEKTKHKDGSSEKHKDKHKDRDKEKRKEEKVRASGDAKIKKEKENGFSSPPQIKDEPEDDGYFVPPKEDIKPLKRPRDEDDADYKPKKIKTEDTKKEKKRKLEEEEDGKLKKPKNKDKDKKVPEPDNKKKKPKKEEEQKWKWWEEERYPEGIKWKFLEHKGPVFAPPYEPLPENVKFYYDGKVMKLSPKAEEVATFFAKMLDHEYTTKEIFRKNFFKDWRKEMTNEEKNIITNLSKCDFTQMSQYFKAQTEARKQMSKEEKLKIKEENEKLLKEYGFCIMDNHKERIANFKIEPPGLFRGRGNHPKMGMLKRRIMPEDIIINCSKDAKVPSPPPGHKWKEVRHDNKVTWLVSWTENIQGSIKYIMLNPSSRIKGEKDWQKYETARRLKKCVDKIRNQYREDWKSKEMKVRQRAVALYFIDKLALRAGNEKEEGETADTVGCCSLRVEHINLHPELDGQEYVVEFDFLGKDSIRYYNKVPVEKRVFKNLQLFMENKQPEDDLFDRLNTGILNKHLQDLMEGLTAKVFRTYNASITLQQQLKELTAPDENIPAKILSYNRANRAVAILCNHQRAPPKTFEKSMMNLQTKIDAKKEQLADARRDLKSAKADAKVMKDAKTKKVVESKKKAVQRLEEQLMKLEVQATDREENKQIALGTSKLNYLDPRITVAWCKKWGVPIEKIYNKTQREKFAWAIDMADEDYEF
Description: Inhibition of topoisomerase 1-mediate pHot DNA relaxation measured by electrophoretic mobility.

In the case of `CNCCNc1c2c(c(NCCNC)c3sccc13)C(=O)c1ccccc1C2=O`, the figures for the “Ratio IC50” value in test [1] and in test [3] were 1.4 and 0.6, respectively. Moreover, the result in test [2] and in test [4] was Active.

Take `N=C(N)NCCNc1c2c(c(NCCNC(=N)N)c3sccc13)C(=O)c1ccccc1C2=O`: the results for the “Ratio IC50” value in test [1] and in test [3] were 3.4 and above 25, respectively. In test [2], the result was Active.

As to `CNCCNc1c2c(c(NCCNC)c3c(C)csc13)C(=O)c1ccccc1C2=O`, the “Ratio IC50” value in test [1] stood at 2; in test [3] it was 2.7.

Consider `CNC(=O)c1cc2c(NCCN(C)C)c3c(c(NCCN(C)C)c2s1)C(=O)c1ccccc1C3=O`, for which the “Ratio IC50” value in test [1] was 1.1; in test [3], 4.2.

Take `COc1cccc2c1C(=O)c1c(O)c3c(c(O)c1C2=O)C[C@@](O)(C(=O)CO)C[C@@H]3O[C@H]1C[C@H](N)[C@H](O)[C@H](C)O1` [DOXORUBICIN]: in test [1], the “Ratio IC50” value is on record as 51.

With `Cc1csc2c(NCCN)c3c(c(NCCN)c12)C(=O)c1ccccc1C3=O`, the “Ratio IC50” value is listed as 5 in test [1] and above 83 in test [3].

In the case of `Cc1csc2c(NCCN(C)C)c3c(c(NCCN(C)C)c12)C(=O)c1ccccc1C3=O`, the “Ratio IC50” value in test [1] turned out to be 1.8; in test [3], 8.4.

With `CNCCNc1c2c(c(NCCNC)c3sc(C(=O)NC)cc13)C(=O)c1ccccc1C2=O`, the “Ratio IC50” value in test [1] was above 11.

`CN(C)CCNc1c2c(c(NCCN(C)C)c3sc(C(=O)NN)cc13)C(=O)c1ccccc1C2=O`: the entries for the “Ratio IC50” value in test [1] and in test [3] were above 90 and above 25, respectively.

Take `CN(C)CCNc1c2c(c(NCCN(C)C)c3sccc13)C(=O)c1ccccc1C2=O`: the “Ratio IC50” value in test [1] turned out to be 2.3; in test [3], 0.6.

For `CN(CCNc1c2c(c(NCCN(C)C(=N)N)c3sccc13)C(=O)c1ccccc1C2=O)C(=N)N`, the outcome in test [2] was Active. The “Ratio IC50” value in test [3] is given as above 24.

`CNCCNc1c2c(c(NCCNC)c3[nH]ccc13)C(=O)c1ccccc1C2=O`: the figures for the “Ratio IC50” value in test [1] and in test [3] were 3.1 and 1, respectively.

As for `CC(=O)OCCNCCNc1c2c(c(NCCNCCOC(C)=O)c3sccc13)C(=O)c1ccccc1C2=O`, in test [1], the “Ratio IC50” value was above 18.

Consider `CN(C)CCNc1c2c(c(NCCN(C)C)c3sc(C(=O)NCCO)cc13)C(=O)c1ccccc1C2=O`, for which, in test [1], the “Ratio IC50” value was above 6.

In the case of `O=C1c2ccccc2C(=O)c2c1c(NCCNCCO)c1ccsc1c2NCCNCCO`, the “Ratio IC50” value in test [1] is on record as above 12.
